Results on 21 molecules are retold here after ChEMBL document CHEMBL3217634, “Synthesis and trypanocidal action of new adamantane substituted imidazolines” (Medchemcomm, 2013).

SMILES strings stand for the structures. pIC50: −log10 of the molar value. Bounds are passed on as bounds.

The nature of data set [1]: Selectivity index, ratio of IC50 for rat L6 cells to IC50 for Trypanosoma brucei Lister 427. The data set is classed as toxicity, cell-based. As to conditions: L6 cells (versus Trypanosoma brucei Lister 427), read-out: Ratio IC50.
The test system of a further data set is L6. Put plainly: Cytotoxicity against rat L6 cells after 6 days by Alamar Blue fluorescence assay. The note with it: L6, 144 h. The data set is classed as cell-based. (In general: Resazurin is reduced to fluorescent resorufin, in cell work by metabolically active cells.)
The next data set deals with Trypanosoma brucei. Briefly: Antitrypanosomal activity against Trypanosoma brucei Lister 427 after 2 days by Alamar Blue fluorescence assay. The data set is classed as functional, organism-based. As to conditions: Lister 427, 48 h.

For orientation: pIC50 means −log10 of the IC50, conventionally taken in molar units. The low end stands for a large IC50, the high end for a small IC50. In general, IC90 refers to the concentration needed for an effect of 90%. A lower IC90 goes with an effect from little substance. Turning to `C1=NCC(C23CC4CC(CC(C5CCCC5)(C4)C2)C3)N1` (stereo not drawn), the selectivity ratio in data set [1] turned out to be 2.4. In the data set with L6, this molecule gave a pIC50 of 5.43. In the data set with Trypanosoma brucei, the negative logarithm of the IC50 (pIC50) is 5.80 and the 90% effect level (IC90) was put at 2.42 µM.
For the molecule `CN1C=NCC1C12CC3CC(CC(C4CCCC4)(C3)C1)C2` (stereo not drawn), in data set [1], the selectivity ratio came out at 3.9. The pIC50 is 5.24 in the data set with L6 and 5.82 in the data set on Trypanosoma brucei. Besides, it took 1.83 µM to reach the 90% level in the data set with Trypanosoma brucei (IC90).
In the same order, the values of `CC1=NCC(C23CC4CC(CC(C5CCCC5)(C4)C2)C3)N1` (stereo not drawn) are 1.6, 5.45, 5.67 and 2.77 µM.
In the same order, the values of `CC1=NCC(C23CC4CC(CC(C5CCCC5)(C4)C2)C3)N1C` (stereo not drawn) are 1.3, 5.42, 5.53 and 4.51 µM.
`NC1=NCC(C23CC4CC(CC(C5CCCC5)(C4)C2)C3)N1` (stereo not drawn): the selectivity ratio in data set [1] was 7.9. For the same molecule, the pIC50 is 4.76 in the data set with L6 and 5.66 with Trypanosoma brucei. The molecule also returned an IC90 in the data set with Trypanosoma brucei of 2.63 µM.
In the same order, the values of `CN1C(N)=NCC1C12CC3CC(CC(C4CCCC4)(C3)C1)C2` (stereo not drawn) are 7.1, 4.93, 5.78 and 2.23 µM.
As for `C1=NCC(C23CC4CC(CC(C5CCCCC5)(C4)C2)C3)N1` (stereo not drawn), in data set [1], the selectivity ratio was determined as 2.5. Also, the figures for the pIC50 in the data set with L6 and in the data set on Trypanosoma brucei were 5.14 and 5.54, respectively. It took 4.2 µM to reach the 90% level with Trypanosoma brucei (IC90).
Taken in the same sequence, the figures for `NC1=NCC(C23CC4CC(CC(C5CCCCC5)(C4)C2)C3)N1` (stereo not drawn) were 10.2, 4.72, 5.73 and 2.52 µM.
On to `CN1C(N)=NCC1C12CC3CC(CC(C4CCCCC4)(C3)C1)C2` (stereo not drawn), for which the selectivity ratio in data set [1] was determined as 4.3. Further, the pIC50 in the data set on L6 was 5.13. Moreover, in the data set on Trypanosoma brucei, the negative logarithm of the IC50 (pIC50) is 5.76 and the IC90 was determined as 2.35 µM.
In the data set on Trypanosoma brucei, `C1=NCC(C23CC4CC(CC(c5ccccc5)(C4)C2)C3)N1` (stereo not drawn) showed a pIC50 of 5.15 and an IC90 of 9.02 µM.
For the molecule `CN1C=NCC1C12CC3CC(CC(c4ccccc4)(C3)C1)C2` (stereo not drawn), in the data set on Trypanosoma brucei, the pIC50 was 5.10 and it took 13.1 µM to reach the 90% level (IC90).
Taken in the same sequence, the figures for `CC1=NCC(C23CC4CC(CC(c5ccccc5)(C4)C2)C3)N1` (stereo not drawn) were 5.31 and 8.11 µM.
Regarding `CC1=NCC(C23CC4CC(CC(c5ccccc5)(C4)C2)C3)N1C` (stereo not drawn), in the data set on Trypanosoma brucei, the pIC50 is 5.15 and the IC90 is 10.3 µM.
Taken in the same sequence, the figures for `NC1=NCC(C23CC4CC(CC(c5ccccc5)(C4)C2)C3)N1` (stereo not drawn) were 5.13 and 11.8 µM.
Taken in the same sequence, the figures for `CN1C(N)=NCC1C12CC3CC(CC(c4ccccc4)(C3)C1)C2` (stereo not drawn) were 5.34 and 5.58 µM.
In the case of `C1=NCC(C23CC4CC(CC(C5CCCC5)(C4)C2)C3)N1C1CCCCC1` (stereo not drawn), in data set [1], the selectivity ratio came to 1.9. This molecule also gave a pIC50 in the data set with L6 of 5.46. In addition, in the data set with Trypanosoma brucei, the pIC50 was 5.74 and the 90% effect level (IC90) was put at 2.41 µM.
As to `NC1=NCC(C23CC4CC(CC(C5CCCC5)(C4)C2)C3)N1C1CCCCC1` (stereo not drawn), the selectivity ratio in data set [1] is 5. This molecule also showed a pIC50 in the data set on L6 of 5.49. In addition, in the data set with Trypanosoma brucei, the pIC50 was 6.19 and the IC90 turned out to be 0.84 µM.
In the data set on Trypanosoma brucei, `C1=NCC(C23CC4CC(CC(C5CCCC5)(C4)C2)C3)N1c1ccccc1` (stereo not drawn) had a pIC50 of 4.79 and an IC90 of 24.2 µM.
Taken in the same sequence, the figures for `NC1=NCC(C23CC4CC(CC(C5CCCC5)(C4)C2)C3)N1c1ccccc1` (stereo not drawn) were 4.95 and 15.5 µM.
In the same order, the values of `NC12CC3CC(CC(C3)C1)C2` [AMANTADINE] are less than 3.88 and greater than 132 µM.
In the data set with Trypanosoma brucei, `CC(N)C12CC3CC(CC(C3)C1)C2` (stereo not drawn) [RIMANTADINE] registered an IC90 of 14 µM.
